Entries after “also recorded” stand apart in the source; their conditions may differ.
Experiments:
Glucose tolerance test = format: in vivo, mice; conditions: for response to glucose challenge / glucose intolerance: WT mice exposed to stress and high-fat diet, FIG. 18A
Protocol: Glucose tolerance test: After an overnight 17 h fast, unanesthetized mice are injected i.p. with a dose of 1.5 g of 50% glucose solution per kg of body weight. Blood samples are obtained from the tail vein 30 min prior to the glucose challenge and then again at 0, 30, 60, 90 min after the glucose challenge. Blood glucose concentrations are measured with an Elite XL (Bayer) portable glucose meter.
1. Cell culture: 3T3-L1 preadipocyte cells, (gift from Dr. Lane,^34) were cultured in DMEM high glucose media with glutamine, 10% calf sera (Gemini Bioproducts), d-Biotin (8 μg/ml) and Pantothenate (8 μg/ml) (Sigma). SK-N-BE(2) neuroblastoma cells (ATCC) were cultured in EMEM/F12K with 10% fetal bovine sera (FBS). HMVEC endothelial cells (Cambrex) were cultured in endothelial cell growth media (Cambrex). All media was supplemented with 100 units/ml penicillin, 100 μg/ml streptomycin and […] amphotericin. 2. Proliferation assay: Cells were plated onto 96-well dishes, growth-arrested in serum-free media for 24 h, and then were treated with the desired factors for 24 h in the culture media supplemented with 0.25% FBS; 4 hr after treatment 0.5 μCi [^3H] thymidine was added to each well. After 24 h, cells were harvested in a 96-well harvester (Tomtec) and counted in a Betaplate Liquid Scintillation Counter (Wallac). 3. Co-culture: For mitogenic assay and expression studies, co-culture was performed in a Costar Transwell system. Cells were plated on 6-well plates or inserts with 0.4 μm Polyester membranes. At 30% confluence, the inserts were combined with wells containing other cells. […] After 48 hr, the cells were counted with a Beckman Coulter Counter. […] The results were analyzed using software provided by BioRad and expression levels calculated by the comparative CT method using β-actin as an endogenous reference gene, according to the Applied Biosystems' ABI PRISM 7700 User Bulletin #2. […] The density of TUNEL positive cells will be measured using NIH ImageJ software (using a plugin written by Wayne Rasband). […]

abdominal fat = test: Stress and high-fat diet induced obesity model; format: in vivo, mice
Protocol: In environmentally-induced obese mice, normal NWT C57BL/6 and SV129 mice are subjected to low levels of chronic stress (cold stress, 1 cm ice-water bath at the base of the cage for 1 hour, a technique that increases NPY and stimulates vascular growth) and fed a high-fat, “comfort food” diet consisting of lard and sucrose (standard chow diet/high fat diet: fat: 12%/45%, carbohydrates: 60%/35%, and protein: 28%/20%). These mice are treated with NPY, Y2R agonists and Y2R antagonists. The growth of fat deposits is monitored by MRI and vascularization is confirmed by immunohistochemistry (IHC). ELISA, IHC, and quantitative real-time RT-PCR are used to determine how diet and stress affect NPY and Y2R levels. Core body temperature and food intake are monitored to determine changes in metabolism (FIG. 15). Glucose tolerance tests and lipid profiles of the mice are used to determine whether altering adipose mass results in a change in insulin, glucose, FFA, TG or cholesterol in the plasma (FIG. 18).
Magnetic Resonance Imaging (MRI): A Brukker 7-Tesla small-animal magnetic resonance imager coil is used to visualize and noninvasively quantitate various fat depots. A 3-dimensional (3D) T2-weighted (T2W) imaging protocol optimized for high contrast fat-imaging is implemented. […] Quantification of the total body fat as well as separate specific fat depots is calculated using thresholding and voxel count plugins from NIH image J software. VolumeJ is used to render, in a 3D image, the various fat depots. The animal management system that is used in conjunction with the MRI is equipped to take core, skin, ambient and water blanket temperature measurements that are monitored during the imaging. The water blanket is used to regulate core temperature of the rodent during anesthesia. […]
High fat diet: Mice are given either a Standard Chow (SC) diet: 28% protein, 60% carbohydrate, 12% fat (4 kcal/gm) or a High Fat (HF) diet: 20% protein, 35% carbohydrate, 45% fat (4.7 kcal/gm) from Research Diets for 14-28 days. Food consumption is measured daily from the various treatment groups and pairfeeding ensures that changes seen in weight and visceral fat are due to the peripheral effects of the treatment. […]

[1] = intra-fat injection, HF and stress
[2] = local Y2R antagonist, stress and HF-diet
[3] = local intra-fat injections, within 2-weeks, HF + stress

Compound: N=C(N)NCCC[C@H](NC(=O)CC1(CC(=O)N2CCN(C3c4ccccc4NC(=O)c4ccccc43)CC2)CCCC1)C(=O)NCCn1c(=O)n(-c2ccccc2)n(-c2ccccc2)c1=O (some centres unmarked) [BIIE0246]
- response to glucose challenge / glucose intolerance (Glucose tolerance test; listed as Y2R antagonist): resolved
- response to glucose challenge / glucose intolerance (Glucose tolerance test; listed as Y2 antagonist): normalized glucose intolerance
- response to glucose challenge (Glucose tolerance test; ob/ob mice, FIG. 18B, listed as Y2R antagonist): near normal response to the challenge; also recorded: resolved
- stress-amplification of visceral fat (MRI fat volume fraction) (abdominal fat; four weeks daily 1-hr cold stress + high fat diet): reversed
- stress-induced insulin-to-NPY switch and metabolic abnormalities (abdominal fat; intra-fat administration): fully prevented
- fat mass (abdominal fat; [1]): reduced fat mass
- imbalance of NPY-to-epinephrine plasma levels (abdominal fat; [1]): reversed this imbalance
- stress+HF-induced hyperlipidemia (abdominal fat; intra-fat injections): did not alter
- UCP-1/2 expression in WAT (abdominal fat; intra-fat injections, stress+HF): did not alter
- adipocyte apoptosis (TUNEL) (abdominal fat; [2]): increased their apoptosis
- adipocyte proliferation (Ki67+ staining) (abdominal fat; [2]): inhibited adipocyte proliferation
- insulin levels (abdominal fat; [3]): increased insulin levels
- metabolic profile (abdominal fat; [3]): improved metabolic profile
- plasma NPY levels (abdominal fat; [3]): normalized
- plasma adipokine levels (abdominal fat; [3]): normalized
- tissue steatosis (liver and skeletal muscle) (abdominal fat; local intra-fat injections, HF + stress, listed as Y2R antagonist): inhibited tissue steatosis; also recorded: reduced liver and skeletal muscle steatosis
- visceral fat (abdominal fat; nonstressed WT mice, FIG. 17): significant reduction in visceral fat
- lowered plasma osteocalcin levels (bone loss response) (abdominal fat; stress combined with HF, intra-fat delivery): completely normalized
- stress-induced WAT cellularity, proliferation of small adipocytes (abdominal fat; stress in HF-fed mice): reversed
- visceral fat volume fraction (abdominal fat; stressed C57BL/6 WT mice, FIG. 17): reversed
- other fat depots (abdominal fat; stressed HF-fed mice, 2-weeks): without significantly changing other depots
- reduction of abdominal (subcutaneous and visceral) depot (abdominal fat; stressed HF-fed mice, pellet 10 μg/14 days or daily injections 1 μM, 2-weeks): 40%
- visceral fat volume fraction (abdominal fat; stressed SV129 mice on high-fat diet, Y2R antagonist slow-release pellets, FIG. 16): reduced to a level that is comparable to nonstressed SV129 mice given a placebo pellet

— patent publication US20090317376A1, “Compositions And Methods For Lipo Modeling” (Georgetown University MEDICAL SCHOOL, priority 2005, published 2009)
